In the supplement of paper PMC11451515:

System: SEM cells
Experiment: cell viability relative to DMSO control; higher = less cytotoxic
Conditions: 48 h
Summary of the method: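 Viability is expressed as a percentage of DMSO wells within each plate, and cell-free wells serve as background. Seeding densities in the 1536-well plates (5 μl) were 500 cells/well for NOMO1 or SEM leukemia cells and 1000 cells/well for P12-Ichikawa. Each line was adapted for at least four passages in each medium. Library compounds in DMSO were pin-dosed at 47 μM to 0.79 nM (11 points, threefold), and CellTiter-Glo One luminescence was read after 48 h at 37°C.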

[1] = HPLM + 10% dialyzed FBS, 0.000781 µM
[2] = HPLM + 10% dialyzed FBS, 0.00234 µM
[3] = HPLM + 10% dialyzed FBS, 0.00702 µM
[4] = HPLM + 10% dialyzed FBS, 0.0211 µM
[5] = HPLM + 10% dialyzed FBS, 0.0632 µM
[6] = HPLM + 10% dialyzed FBS, 0.19 µM
[7] = HPLM + 10% dialyzed FBS, 0.569 µM
[8] = HPLM + 10% dialyzed FBS, 1.71 µM
[9] = HPLM + 10% dialyzed FBS, 5.12 µM
[10] = HPLM + 10% dialyzed FBS, 15.4 µM
[11] = HPLM + 10% dialyzed FBS, 46.1 µM
[12] = RPMI 5 mM glucose + 10% FBS, 0.000781 µM
[13] = RPMI 5 mM glucose + 10% FBS, 0.00234 µM
[14] = RPMI 5 mM glucose + 10% FBS, 0.00702 µM
[15] = RPMI 5 mM glucose + 10% FBS, 0.0211 µM
[16] = RPMI 5 mM glucose + 10% FBS, 0.0632 µM
[17] = RPMI 5 mM glucose + 10% FBS, 0.19 µM
[18] = RPMI 5 mM glucose + 10% FBS, 0.569 µM
[19] = RPMI 5 mM glucose + 10% FBS, 1.71 µM
[20] = RPMI 5 mM glucose + 10% FBS, 5.12 µM
[21] = RPMI 5 mM glucose + 10% FBS, 15.4 µM
[22] = RPMI 5 mM glucose + 10% FBS, 46.1 µM
[23] = RPMI 5 mM glucose + 10% dialyzed FBS, 0.000781 µM
[24] = RPMI 5 mM glucose + 10% dialyzed FBS, 0.00234 µM
[25] = RPMI 5 mM glucose + 10% dialyzed FBS, 0.00702 µM
[26] = RPMI 5 mM glucose + 10% dialyzed FBS, 0.0211 µM
[27] = RPMI 5 mM glucose + 10% dialyzed FBS, 0.0632 µM
[28] = RPMI 5 mM glucose + 10% dialyzed FBS, 0.19 µM
[29] = RPMI 5 mM glucose + 10% dialyzed FBS, 0.569 µM
[30] = RPMI 5 mM glucose + 10% dialyzed FBS, 1.71 µM
[31] = RPMI 5 mM glucose + 10% dialyzed FBS, 5.12 µM
[32] = RPMI 5 mM glucose + 10% dialyzed FBS, 15.4 µM
[33] = RPMI 5 mM glucose + 10% dialyzed FBS, 46.1 µM

| Structure (SMILES) | cell viability [1] [%] | cell viability [2] [%] | cell viability [3] [%] | cell viability [4] [%] | cell viability [5] [%] | cell viability [6] [%] | cell viability [7] [%] | cell viability [8] [%] | cell viability [9] [%] | cell viability [10] [%] | cell viability [11] [%] | cell viability [12] [%] | cell viability [13] [%] | cell viability [14] [%] | cell viability [15] [%] | cell viability [16] [%] | cell viability [17] [%] | cell viability [18] [%] | cell viability [19] [%] | cell viability [20] [%] | cell viability [21] [%] | cell viability [22] [%] | cell viability [23] [%] | cell viability [24] [%] | cell viability [25] [%] | cell viability [26] [%] | cell viability [27] [%] | cell viability [28] [%] | cell viability [29] [%] | cell viability [30] [%] | cell viability [31] [%] | cell viability [32] [%] | cell viability [33] [%] |
| --- | --- | --- | --- | --- | --- | --- | --- | --- | --- | --- | --- | --- | --- | --- | --- | --- | --- | --- | --- | --- | --- | --- | --- | --- | --- | --- | --- | --- | --- | --- | --- | --- | --- |
| CC(C)NC[C@@H](C(=O)N1CCN(c2ncnc3c2[C@H](C)C[C@H]3O)CC1)c1ccc(Cl)cc1 | 113 | 103 | 115 | 89.3 | 87.6 | 63.6 | 36.9 | 23.1 | 12.1 | 9.57 | 1.69 | 103 | 112 | 127 | 101 | 74.3 | 61.3 | 36.9 | 32.5 | 13.8 | 5.24 | 1.73 | 117 | 90.3 | 93 | 79.4 | 93.2 | 48.5 | 34.9 | 20.5 | 9.56 | 4.26 | 2.07 |
| COc1cc2ncnc(Nc3ccc(F)c(Cl)c3)c2cc1NC(=O)/C=C/CN1CCCCC1 | 94.2 | 112 | 110 | 102 | 105 | 99.1 | 94.6 | 85.5 | 76.7 | 71.4 | 42.4 | 119 | 129 | 120 | 119 | 122 | 117 | 124 | 91.3 | 88.6 | 80.2 | 42.3 | 97.9 | 85.6 | 96.4 | 116 | 93.3 | 87 | 104 | 76.6 | 77.6 | 66.7 | 41.3 |
| CCN1\C=C(\C(O)=O)C(=O)C2=CC=C(C)N=C12 | 72.7 | 70.2 | 82.7 | 87.4 | 99 | 97.5 | 92 | 94.8 | 96.4 | 19.8 | 97.3 | 86 | 93.3 | 102 | 97.1 | 93 | 108 | 90.9 | 98.9 | 103 | 13.6 | 76.5 | 86.9 | 82.3 | 103 | 97.9 | 86.3 | 111 | 103 | 96.6 | 66 | 21.3 | 78.5 |
| Nc1ncnc2c1c(-c1cnc3[nH]ccc3c1)nn2C1CCCC1 | 111 | 113 | 127 | 122 | 113 | 105 | 95.2 | 69.6 | 51.1 | 36.2 | 11 | 81.9 | 76.3 | 85.1 | 95.4 | 94.8 | 73.6 | 68.8 | 49.2 | 33.8 | 24.7 | 6.03 | 123 | 120 | 125 | 114 | 129 | 112 | 99.6 | 73.8 | 59.5 | 42.6 | 6.97 |
| CC(C)C(=O)Oc1ccc(CO)cc1[C@H](CCN(C(C)C)C(C)C)c1ccccc1 | 34.1 | 81.6 | 97.9 | 80.4 | 74.6 | 83.3 | 82.8 | 81 | 82.3 | 76.2 | 72.4 | 32.5 | 92.1 | 91.8 | 99.3 | 74.4 | 92.5 | 81.7 | 67.5 | 101 | 80.3 | 89.5 | 35.5 | 91.9 | 92.2 | 95.3 | 74.9 | 89.4 | 97.8 | 85.7 | 114 | 96.2 | 99.8 |
| O=C(Nc1ccc(F)c(C(F)(F)F)c1)Nc1nnc(-c2ccncc2)s1 | – | – | – | – | – | – | – | – | – | – | – | 99.6 | 112 | 104 | 103 | 107 | 105 | 88.9 | 104 | 105 | 106 | 92.8 | 121 | 114 | 124 | 113 | 115 | 117 | 121 | 104 | 113 | 125 | 109 |
| CC(C)=CC[C@@H](O)C/1=C/C(=O)C2=C(O)C=CC(=C2C1=O)O | 76.2 | 90.2 | 89.5 | 96 | 98.3 | 97.7 | 93.5 | 91.4 | 98.7 | 119 | 77.4 | 82.4 | 76.6 | 79.2 | 81.9 | 93.2 | 98.3 | 92.3 | 105 | 86.2 | 77.8 | 47.1 | 72.2 | 87.8 | 85.8 | 95.5 | 99 | 104 | 111 | 117 | 87.4 | 80.4 | 21.6 |
| Nc1nc(N)c2nc(CNc3ccc(C(=O)NC(CCC(=O)O)C(=O)O)cc3)cnc2n1 (stereo not drawn) | 104 | 114 | 110 | 127 | 57.2 | 36.6 | 39.5 | 45.6 | 48.6 | 41.8 | 46.5 | 111 | 115 | 120 | 110 | 92.2 | 56.5 | 83 | 76.4 | 99.7 | 86.5 | 87.5 | 96.2 | 103 | 104 | 104 | 30.5 | 23.7 | 23.1 | 23.1 | 28.8 | 29.6 | 23.8 |
